One assay relates to MRSA. In words: Minimum bactericidal concentration (MBC) with and without white light. The assay is classed as cell-based, S. aureus. The settings on record: Staphylococcus aureus, light or radiation study. As for the experimental part: The bacterial media was inoculated with bacteria and incubated overnight. The bacterial cultures were diluted to 5×10^8 CFU/mL using a McFarland latex turbidity standard (0.5). Compound 1 was diluted with sterile DMSO, which was added to the cell suspension in glass culture tubes. The cells were then incubated for 30 minutes at 37° C. on a rotary shaking incubator at 150 rpm. 500 μL of the treated cell suspension was added to a well on a sterile ceramic drop plate. Non-coherent white light from a Lumacare™ LC-122 unit was used to irradiate the samples. The end of the light probe was placed 3 cm above the sample well, perpendicular to the surface of the sample, and light was applied for 2 minutes (15 seconds light, 15 seconds dark). 200 μL of the irradiated sample was transferred to a 96-well plastic microtiter plate and five ten-fold dilutions were made in the media. 10 μL of each dilution was dripped onto an agar media plate and was allowed to streak down the plate by tilting the plate down. The agar plates were incubated at 37° C. overnight and colony counts were performed to calculate the CFU/mL.
TABLE 14 details the MBC values of compounds 1-6 against MRSA with and without irradiation with white light. Irradiation involved treatment with a LumaCare™ light source at 3 cm from media for 1 min.

A further assay relates to HeLa cells. In words: Toxicity (IC50) on HeLa cells. The assay is classed as cell-based, human. The settings on record: cancerous cervical epithelium HeLa cells; for IC50: Homo sapiens. As for the experimental part:
The toxicities of the compounds of the invention were determined for human cancerous cervical epithelium HeLa and normal lung fibroblast WI38 cells. The toxicities of EPIs INF-55 and INF-55Cl were quantified as controls. […] TABLE 2 compares the toxicity of compounds 7-11 on HeLa cells and normal WI38 cells.

For the next assay, the system named is VRE. In words: MIC against VRE. The class given is cell-based, Enterococcus faecalis. As for the experimental part:
In a 12×75 mm borosilicate glass culture tube, 1 mL of cell suspension was added. Then, compound 7 was added to the cells, and the samples were mixed using a vortex mixer. […] The samples were incubated overnight at 37° C. on a rotary shaking incubator at 100 rpm.

A further assay concerns S. aureus (ATCC 29213). In words: MIC against drug sensitive S. aureus. The class given is cell-based. The settings on record: Staphylococcus aureus, ATCC29213; ATCC 29213; read-out: S. aureus MIC.
Assay [1] in a line: MIC against MRSA isolates. The class given is cell-based, S. aureus. The settings on record: Staphylococcus aureus. The method, then: (§1) The MICs of S. aureus ATCC 33591, BAA-44, BAA-1707, BAA-1717, BAA-1720, BAA-1747, BAA-1754, BAA-1761, BAA-1763, BAA-1764, and BAA-1766 were measured using a cell concentration of about 5×10^5 colony forming units (CFU)/mL. In a 96-well microtiter plate, two-fold dilutions were made of each drug (starting with 100 μM) in 100 μL of a cell suspension in trypticase soy broth (TSB). The samples were incubated overnight at 37° C. on a rotary shaking incubator set at 100 revolutions per minute (rpm) and were visually inspected for turbidity. A 20% well-volume of 3-(4,5-dimethylthiazol-2-yl)-2,5-diphenyltetrazolium bromide (MTT reagent, 5 mg/mL) was added, and the samples were incubated for about 20 minutes. The MICs were determined as the lowest concentration at which full visual inhibition was observed by the unaided eye.

Assay [2] concerns MRSA isolates (S. aureus ATCC 33591, BAA-44, BAA-1707, BAA-1717, BAA-1720, BAA-1747, BAA-1754, BAA-1761, BAA-1763, BAA-1764, BAA-1766). In words: MIC against MRSA isolates. The class given is cell-based. The method, then:
as §1

The mark [3] stands for this setting: 1 min, LumaCare light source at 3 cm from media for 1 min, read-out: MBC with irradiation.
The mark [4] stands for this setting: no irradiation, read-out: MBC in the dark.
The mark [5] stands for this setting: Enterococcus, TABLE 23, read-out: VRE MIC.
[6] abbreviates: MRSA (ATCC BAA-44), TABLE 21, read-out: MRSA MIC.
The mark [7] stands for this setting: antibiotics, MRSA isolate ATCC BAA-44.
[8] abbreviates: antibiotics, MRSA isolate ATCC BAA-1717.
The mark [9] stands for this setting: Enterococcus, common antibiotics, TABLE 24, read-out: MIC.

Values after ≈ are worked out from the molar mass of the structure shown. Where two headings read alike, the source gives them in different places. Marks after values point to notes of the source that are not given here. Where only a bound is given, the exact number is not on record here.

With `C(=C\c1[nH]c2ccccc2c1/C=C/c1ccccc1)/c1ccccc1` [Compound 2], the MBC with MRSA (setting [3]) worked out at 0.5 µM (≈ 0.161 µg/mL); in the assay on MRSA (setting [4]) it was 100 µM (≈ 32.1 µg/mL).

In the case of `COc1ccc(/C=C/c2[nH]c3ccccc3c2/C=C/c2ccc(OC)cc2)cc1` [Compound 3], the figures for the MBC in the assay with MRSA (setting [3]) and in the assay on MRSA (setting [4]) were 0.5 µM (≈ 0.191 µg/mL) and 200 µM (≈ 76.3 µg/mL), respectively.

For `Clc1ccccc1/C=C/c1[nH]c2ccccc2c1/C=C/c1ccccc1Cl` [Compound 5], the MBC in the assay on MRSA (setting [3]) came to 0.5 µM (≈ 0.195 µg/mL); in the assay on MRSA (setting [4]), 200 µM (≈ 78.1 µg/mL).

As for `Clc1cccc(/C=C/c2[nH]c3ccccc3c2/C=C/c2cccc(Cl)c2)c1` [Compound 6], the minimal bactericidal concentration (MBC) in the assay on MRSA (setting [3]) amounted to 1 µM (≈ 0.39 µg/mL); in the assay with MRSA (setting [4]), 200 µM (≈ 78.1 µg/mL).

In the assay with HeLa cells, `Clc1ccc(-c2cc3[nH]c4ccccc4c3cc2-c2ccc(Cl)cc2)cc1` [Compound 13] came in with an IC50 of 16.4 ± 1.1 µM.

For the molecule `Clc1ccc(Sc2c(-c3ccc(Br)cc3)[nH]c3ccccc23)cc1` [Compound 14], the IC50 with HeLa cells was determined as 12.2 ± 1.6 µM.

Take `Clc1ccc(-c2cc3ccccc3[nH]2)cc1` [Compound 15]: in the assay with HeLa cells, the “IC50 HeLa” value is given as “Non-Toxic”.

In the assay with HeLa cells, `Clc1ccc(Sc2c(-c3ccc(Cl)cc3)[nH]c3ccccc23)cc1` [Compound 16] displayed an IC50 of 6.4 ± 1 µM.

In turn, `O=S(=O)(c1ccc(Cl)cc1)c1c(-c2ccc(Cl)cc2)[nH]c2ccccc12` [Compound 18] yielded an IC50 with HeLa cells of 14.3 ± 0.7 µM.

As to `O=C(c1ccc(Cl)cc1)c1c(-c2ccc(Cl)cc2)[nH]c2ccccc12` [Compound 19], it took 35.8 ± 6 µM to reach half-maximal inhibition in the assay on HeLa cells (IC50). Compared with the last molecule, the IC50 is about 2.5-fold higher.

For the molecule `O=[N+]([O-])c1ccc2[nH]c(-c3ccc(Cl)cc3)cc2c1` [Compound 20], in the assay on HeLa cells, the “IC50 HeLa” value was “Non-Toxic”.

On to `Clc1ccc(Sc2c(-c3ccc(Cl)cc3)[nH]c3ccc(Cl)cc23)cc1` [Compound 21], for which the IC50 with HeLa cells was found to be 8.2 ± 1 µM.

In the assay with HeLa cells, `Clc1ccc(Oc2c(-c3ccc(Cl)cc3)[nH]c3ccc(Br)cc23)cc1` [Compound 22] gave an IC50 of 3.2 ± 0.4 µM. Against the preceding molecule, the IC50 is about 2.6-fold lower.

Molecule `Fc1ccc2[nH]c(-c3ccc(Cl)cc3)c(Oc3ccc(Cl)cc3)c2c1` [Compound 23] came in with an IC50 in the assay on HeLa cells of 12.9 ± 3.2 µM.

`COc1ccc2[nH]c(-c3ccc(Cl)cc3)c(Oc3ccc(Cl)cc3)c2c1` [Compound 24] registered an IC50 in the assay on HeLa cells of 23.9 ± 1.8 µM.

The molecule `Fc1cccc2c(Oc3ccc(Cl)cc3)c(-c3ccc(Cl)cc3)[nH]c12` [Compound 25] registered a concentration for half-maximal inhibition (IC50) in the assay with HeLa cells of 13 ± 3.5 µM.

In the assay with HeLa cells, `CCOC(=O)c1ccc2[nH]c(-c3ccc(Cl)cc3)c(Oc3ccc(Cl)cc3)c2c1` [Compound 26] had an IC50 of 18.6 ± 1.1 µM.

As to `Clc1ccc(/N=N/c2c(-c3ccc(Br)cc3)[nH]c3ccccc23)cc1` [Compound 27], the half-maximal inhibitory concentration (IC50) in the assay with HeLa cells came out at 12.5 ± 0.2 µM.

Molecule `Brc1ccc(/N=N/c2c(-c3ccc(Br)cc3)[nH]c3ccccc23)cc1` [Compound 28] came in with an IC50 in the assay on HeLa cells of 8.6 ± 1.4 µM. The IC50 values of the last two molecules are within 1.5-fold of each other.

With `Fc1ccc(/N=N/c2c(-c3ccc(F)cc3)[nH]c3ccccc23)cc1` [Compound 29], the IC50 with HeLa cells turned out to be 11.6 ± 0.7 µM.

On to `COC(=O)n1c(Br)c(Br)c2ccccc21` [Compound 31], for which the “IC50 HeLa” value in the assay with HeLa cells is on record as “Non-Toxic”.

For `Cc1onc(-c2c(Cl)cccc2Cl)c1C(=O)N[C@@H]1C(=O)N2[C@@H]1SC(C)(C)[C@@H]2C(=O)O` [Dicloxicillin, reference compound], the minimal inhibitory concentration (MIC) was 4 µg/mL (≈ 8.5 µM) in the assay with VRE (setting [5]) and 50 to 100 µg/mL (≈ 106 to 213 µM) in the assay with S. aureus (ATCC 29213).

Turning to `C[C@H]1c2cccc(O)c2C(=O)C2=C(O)[C@]3(O)C(=O)C(C(N)=O)=C(O)[C@@H](N(C)C)[C@@H]3[C@@H](O)[C@@H]21` [Doxycycline, reference compound], the MIC in assay [1] (setting [6]) is 3.12 µg/mL (≈ 7.02 µM); with VRE (setting [5]), 0.25 to 0.5 µg/mL (≈ 0.563 to 1.13 µM); in the assay on S. aureus (ATCC 29213) it was 3.12 µg/mL (≈ 7.02 µM).

In the case of `CC[C@H]1OC(=O)[C@H](C)[C@@H](O[C@H]2C[C@@](C)(OC)[C@@H](O)[C@H](C)O2)[C@H](C)[C@@H](O[C@@H]2O[C@H](C)C[C@H](N(C)C)[C@H]2O)[C@](C)(O)C[C@@H](C)C(=O)[C@H](C)[C@@H](O)[C@]1(C)O` [Erythromycin, reference compound], the MIC is more than 1000 µg/mL in assay [1] (setting [7]), 30 µg/mL (≈ 40.9 µM) in assay [1] (setting [8]) and more than 32 µg/mL in the assay on VRE (setting [9]). Further, the S/R result in the assay with VRE (TABLE 24) is listed as “R”.

`O=[N+]([O-])c1ccc2[nH]c(-c3ccccc3)cc2c1` [INF-55, reference compound]: in the assay with HeLa cells, the “IC50 HeLa” value is “Non-Toxic”.

As to `CC1(C)S[C@@H]2[C@H](NC(=O)Cc3ccccc3)C(=O)N2[C@H]1C(=O)O` [Penicillin G], the S/R result with VRE (TABLE 24) was “S”. In the assay on VRE (common antibiotics, TABLE 24), the MIC was determined as 2 µg/mL (≈ 5.98 µM).

Regarding `CN(C)[C@@H]1C(O)=C(C(N)=O)C(=O)[C@@]2(O)C(O)=C3C(=O)c4c(O)cccc4[C@@](C)(O)[C@H]3C[C@@H]12` [Tetracycline], in the assay on VRE (setting [9]), the MIC was less than 0.5 µg/mL. Moreover, the S/R entry in the assay with VRE (TABLE 24) is reported as “S”.

Take `NC[C@H]1O[C@H](O[C@H]2[C@H](O)[C@@H](O[C@H]3O[C@H](CO)[C@@H](O)[C@H](N)[C@H]3O)[C@H](N)C[C@@H]2N)[C@H](N)C[C@@H]1O` [Tobramycin, reference compound]: the MIC in assay [1] (setting [6]) is more than 5000 µg/mL; in the assay with VRE (setting [5]), more than 200 µg/mL; in the assay with S. aureus (ATCC 29213), 0.25 µg/mL (≈ 0.535 µM).

Turning to Gentamycin [reference compound], the MIC is >100* μg/mL in assay [2] (antibiotics, MRSA isolate ATCC 33591); >200* μg/mL in assay [2] (setting [7]); less than 3.1 µg/mL in assay [2] (antibiotics, MRSA isolate ATCC BAA-1707); 3.1 µg/mL in assay [2] (setting [8]); less than 3.1 µg/mL in assay [2] (antibiotics, MRSA isolate ATCC BAA-1720); 6.3 µg/mL in assay [2] (antibiotics, MRSA isolate ATCC BAA-1747). In addition, the MIC in assay [2] (antibiotics, MRSA isolate ATCC BAA-1754) is less than 3.1 µg/mL; in assay [2] (antibiotics, MRSA isolate ATCC BAA-1761), less than 3.1 µg/mL; in assay [2] (antibiotics, MRSA isolate ATCC BAA-1763) it was 3 to 6 µg/mL; in assay [2] (antibiotics, MRSA isolate ATCC BAA-1764) it was less than 3.1 µg/mL; in assay [2] (antibiotics, MRSA isolate ATCC BAA-1766), 12.5* μg/mL.

As to INF-55Cl [reference compound], the “IC50 HeLa” value in the assay with HeLa cells is listed as “Non-Toxic”.

Regarding Penicillin [reference compound], the MIC in assay [2] (Penicillin, MRSA isolate ATCC BAA-44) is on record as 1.6* mg/mL; in assay [2] (Penicillin, MRSA isolate ATCC BAA-1717), 1* mg/mL.

Values taken from patent US9834514B2, “Antibiotic sensitivity-restoring and photosensitive agents” (New Mexico Tech Research Foundation, priority 2015, dated 2017).
